This note sets out measurements from patent US11873298B2, “Compounds and uses thereof” (JANSSEN PHARMACEUTICA NV, priority 2017, dated 2024).

The target in one assay is T1, SCD5 (Homo sapiens, UniProt Q86SK9).
T1 construct: host or cells: S. cerevisiae ole1Δ strain (W303 pdr1Δ pdr3Δ background), plasmid pRS316 with TDH3 promoter and CYC1 terminator
T1 sequence (Q86SK9 1-330): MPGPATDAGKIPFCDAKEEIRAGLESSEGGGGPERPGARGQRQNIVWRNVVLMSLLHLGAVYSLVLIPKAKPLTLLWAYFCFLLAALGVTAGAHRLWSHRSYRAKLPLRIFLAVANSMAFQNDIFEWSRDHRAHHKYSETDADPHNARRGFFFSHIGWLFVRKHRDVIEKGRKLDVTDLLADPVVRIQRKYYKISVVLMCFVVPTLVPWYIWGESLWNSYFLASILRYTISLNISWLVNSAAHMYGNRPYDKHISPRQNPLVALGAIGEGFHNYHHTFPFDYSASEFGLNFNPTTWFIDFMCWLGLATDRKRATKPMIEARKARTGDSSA
Briefly: Growth inhibition of humanized yeast strain expressing SCD5 as sole desaturase. In kind it is cell-based. The method in brief: (§1)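 Yeast ole1Δ strain (W303 pdr1Δ pdr3Δ background) carrying plasmid-borne Ole1, SCD1 or SCD5 as sole desaturase was grown in uracil-lacking media, pre-cultured in raffinose for 6 h, then seeded in galactose medium with compound in DMSO. Growth was read as OD600 after 30° C. incubation: 24 h for Ole1, 40 h for SCD1/SCD5.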

The next assay addresses T2, SCD1 (Homo sapiens, UniProt O00767).
T2 construct: host or cells: S. cerevisiae ole1Δ strain (W303 pdr1Δ pdr3Δ background), plasmid pRS316 with TDH3 promoter and CYC1 terminator
T2 sequence (O00767 1-359): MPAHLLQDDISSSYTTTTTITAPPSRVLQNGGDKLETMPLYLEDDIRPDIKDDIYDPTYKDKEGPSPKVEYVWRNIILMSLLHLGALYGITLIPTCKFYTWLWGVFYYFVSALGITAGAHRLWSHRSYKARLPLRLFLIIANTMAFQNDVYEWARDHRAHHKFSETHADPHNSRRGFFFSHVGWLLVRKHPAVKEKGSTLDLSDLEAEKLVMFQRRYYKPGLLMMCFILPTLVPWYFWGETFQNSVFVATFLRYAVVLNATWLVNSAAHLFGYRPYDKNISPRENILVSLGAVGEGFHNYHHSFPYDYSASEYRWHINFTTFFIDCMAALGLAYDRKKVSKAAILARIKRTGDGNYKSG
Description: Growth inhibition of humanized yeast strain expressing SCD1 as sole desaturase. In kind it is cell-based. The method in brief:
as §1

Where [1] appears, read: growth inhibition of humanized yeast strain expressing human SCD5.
[2] abbreviates: growth inhibition of humanized yeast strain expressing human SCD1.
The mark [3] stands for this setting: humanized yeast strain expressing SCD5.
Setting [4] is: humanized yeast strain expressing SCD1.

A value given as a limit tells only on which side of the number the result lay.

Regarding `COC(=O)N1CC[C@@H](c2noc(-c3ccc4cnn(C5COC5)c4c3)n2)C[C@@H]1C` [Compound 1054], the half-maximal inhibitory concentration (IC50) against SCD5 (humanized yeast strain, 40 h) was 10 nM; against SCD1 (humanized yeast strain, 40 h) it was greater than 45 µM.

Regarding `O=C(CC1CC1)N1CCC(c2noc(-c3ccc4cnn([C@@H]5CCOC5)c4c3)n2)CC1` [Compound 1104], the IC50 at SCD5 (humanized yeast strain, 40 h) is 10 nM; on SCD1 (humanized yeast strain, 40 h), greater than 45 µM.

For `CC(C)n1cc2c(n1)CN(c1noc(C3CCN(C(=O)OC(C)(C)C)CC3)n1)CC2` [Compound 826], the 50% inhibitory concentration (IC50) against SCD5 (humanized yeast strain, 40 h) was 1990 nM; at SCD1 (humanized yeast strain, 40 h), greater than 45 µM.

As for `CC(C)Nc1cc(-c2nc(N3CCN(C(=O)OC(C)(C)C)CC3)no2)ccn1` [Compound 809], the IC50 was 124 nM at SCD5 (humanized yeast strain, 40 h) and greater than 45 µM at SCD1 (humanized yeast strain, 40 h).

For the molecule `CNC(=O)c1nc(-c2ccc3c(C)nn(C)c3c2)no1` [Compound 745], the half-inhibitory concentration (IC50) was greater than 45000 nM on SCD5 (setting [1]) and greater than 45 µM against SCD1 (setting [2]).

In the case of `CC(C)n1nc(CCN)c2ccc(-c3noc(C4CCN(C(=O)OC(C)(C)C)CC4)n3)cc21` [Compound 761], the half-inhibitory concentration (IC50) was greater than 45000 nM against SCD5 (humanized yeast strain, 40 h) and greater than 45 µM against SCD1 (humanized yeast strain, 40 h).

With `COC(=O)N1CCC(c2noc(-c3ccc4cnn(C5COC5)c4c3F)n2)CC1` [Compound 1004], the IC50 against SCD5 (humanized yeast strain, 40 h) is 297 nM; on SCD1 (humanized yeast strain, 40 h), greater than 45 µM.

As to `COC(=O)N1CCC(c2noc(-c3ccc4cnn(C5CCOC5)c4c3)n2)CC1` (stereo not shown) [Compound 813], the concentration for half-maximal inhibition (IC50) is 10 nM against SCD5 (humanized yeast strain, 40 h) and greater than 45 µM against SCD1 (humanized yeast strain, 40 h).

As for `CC(C)(C)OC(=O)N1CCC(c2noc(-c3ccc4cnn(C5COC5)c4c3)n2)CC1` [Compound 643], the half-maximal inhibitory concentration (IC50) is 10 nM at SCD5 (setting [1]) and greater than 45 µM on SCD1 (setting [2]).

As to `O=C(C1CC1)N1CCN(c2noc(-c3ccnc(NC4COC4)c3)n2)CC1` [Compound 1117], the IC50 against SCD5 (humanized yeast strain, 40 h) was greater than 45000 nM; on SCD1 (humanized yeast strain, 40 h), greater than 45 µM.

With `Cc1nn(C)c2cc(-c3noc(C4CN(C(=O)OC(C)(C)C)C4)n3)ccc12` [Compound 365], at SCD5 (setting [3]), the IC50 is greater than 45000 nM and the “SCD5 % Max Inhibition” value turned out to be 23.74%. On SCD1 (setting [4]), the “SCD1 % Max Inhibition” value is recorded as 58.08%.

Consider `CC(C)(C)OC(=O)N1CCC(c2ccc(-c3ccc4cnn(C5COC5)c4c3)nn2)CC1` [Compound 1030], for which the IC50 at SCD5 (humanized yeast strain, 40 h) was 11000 nM; against SCD1 (humanized yeast strain, 40 h), greater than 45 µM.

Consider `CCC(=O)N1CCC(c2noc(-c3ccc4cnn(C5COC5)c4c3)n2)CC1` [Compound 891], for which the 50% inhibitory concentration (IC50) against SCD5 (humanized yeast strain, 40 h) was 10 nM; against SCD1 (humanized yeast strain, 40 h) it was greater than 45 µM.

For the molecule `O=C(c1ccccc1F)N1CCC(c2noc(-c3ccc4cnn(C5COC5)c4c3)n2)CC1` [Compound 696], the IC50 against SCD5 (setting [1]) is 80 nM; against SCD1 (setting [2]), greater than 45 µM.

As to `COC(=O)N1CCC(c2noc(-c3ccnc(CC4CC4)c3)n2)CC1` [Compound 1081], the 50% inhibitory concentration (IC50) on SCD5 (humanized yeast strain, 40 h) is 2430 nM; on SCD1 (humanized yeast strain, 40 h) it was greater than 45 µM.

In the case of `O=C(C1CC1)N1CCN(c2nnc(-c3ccc4cnn(C5COC5)c4c3)o2)CC1` [Compound 987], the IC50 is greater than 45000 nM at SCD5 (humanized yeast strain, 40 h) and greater than 45 µM at SCD1 (humanized yeast strain, 40 h).

`CCC(=O)N1CCC(c2nc(-c3ccc4onc(C(C)C)c4c3)no2)CC1` [Compound 940]: the IC50 against SCD5 (humanized yeast strain, 40 h) is 31200 nM; against SCD1 (humanized yeast strain, 40 h), greater than 45 µM.

As for `COC(=O)N1CCC(c2noc(-c3cc(C)c4cnn(C5COC5)c4c3)n2)CC1` [Compound 1070], the half-inhibitory concentration (IC50) is 81 nM against SCD5 (humanized yeast strain, 40 h) and greater than 45 µM against SCD1 (humanized yeast strain, 40 h).

In the case of `Cn1ncc2ccc(-c3noc(C4CCNCC4)n3)cc21` [Compound 500], the concentration for half-maximal inhibition (IC50) was greater than 45000 nM against SCD5 (setting [3]) and greater than 45 µM at SCD1 (setting [4]).

Turning to `CC(C)c1noc2ccc(-c3noc(C4CCN(C(=O)CC5(C)CC5)CC4)n3)cc12` [Compound 670], the IC50 on SCD5 (setting [1]) was 3790 nM; at SCD1 (setting [2]) it was greater than 45 µM.

With `CC1(OC(=O)N2CCC(c3nnc(-c4ccc5cnn(C6COC6)c5c4)o3)CC2)CCC1` [Compound 981], the half-maximal inhibitory concentration (IC50) against SCD5 (humanized yeast strain, 40 h) was 45 nM; at SCD1 (humanized yeast strain, 40 h) it was greater than 45 µM.

Turning to `CCOC(=O)CC(C)n1ncc2ccc(-c3noc(C4CCN(C(=O)OC(C)(C)C)CC4)n3)cc21` (stereo not shown) [Compound 651], the IC50 is 18400 nM against SCD5 (setting [1]) and greater than 45 µM against SCD1 (setting [2]).

Consider `CC(C)(C)OC(=O)N1CCC(c2nc(-c3ccc4cnn(C5CCCOC5)c4c3)no2)CC1` (stereo not shown) [Compound 720], for which the IC50 is 1970 nM at SCD5 (setting [1]) and greater than 45 µM at SCD1 (setting [2]).

With `CC(C)C(=O)N1CCC(c2noc(-c3cncc(N4CCC(F)(F)C4)c3)n2)CC1` [Compound 1174], the half-inhibitory concentration (IC50) was 10400 nM on SCD5 (humanized yeast strain, 40 h) and greater than 45 µM against SCD1 (humanized yeast strain, 40 h).

What is called IC50 is the concentration that inhibits the measured activity by half.
